Measurements taken from the SangsterLogP compilation.

Test: not given

logP | SMILES
-0.66 | NC(=O)c1ccc(S(N)(=O)=O)cc1
0.65 | COc1cccc(S(N)(=O)=O)c1
0.27 | N#Cc1cccc(S(N)(=O)=O)c1
-0.7 | NS(=O)(=O)c1ccc(S(N)(=O)=O)cc1
2.13 | COC(=O)c1ccc(S(=O)(=O)c2ccc(N)cc2)cc1
-0.55 | NC(=O)c1cccc(S(N)(=O)=O)c1
1.65 | COc1ccc(S(=O)(=O)c2ccc(N)cc2)c(OC)c1
0.4 | N#Cc1ccc(S(N)(=O)=O)cc1
3.15 | Nc1ccc(S(=O)(=O)c2ccc(Br)cc2)cc1
1.93 | CN(C)c1ccc(S(=O)(=O)c2ccc(N)cc2)cc1
1.84 | Nc1ccc(S(=O)(=O)c2ccccc2)cc1
2.69 | Cc1ccc(S(=O)(=O)c2ccc(N)cc2)c(C)c1
0.33 | NS(=O)(=O)c1ccccc1
0.6 | NS(=O)(=O)c1cccc([N+](=O)[O-])c1
2.03 | Nc1ccc(S(=O)(=O)c2ccc([N+](=O)[O-])cc2)cc1
0.31 | CC(=O)c1ccc(S(N)(=O)=O)cc1
0.83 | Cc1ccc(S(N)(=O)=O)cc1
1.84 | Nc1ccc(S(=O)(=O)c2ccc([N+](=O)[O-])cc2[N+](=O)[O-])cc1

Test: method code SF-AS, from DOI: 10.1111/j.2042-7158.1991.tb06664.x, PMID: 1675277

logP | SMILES
1.98 | CCNc1ccc(S(=O)(=O)c2ccc(N)cc2)cc1
2.01 | Nc1ccc(S(=O)(=O)c2ccc(F)cc2)cc1
1.56 | Nc1ccc(S(=O)(=O)c2ccccc2N)cc1
1.67 | CC(=O)c1ccc(S(=O)(=O)c2ccc(N)cc2)cc1
1.96 | COc1ccc(S(=O)(=O)c2ccc(N)cc2)cc1
0.38 | Nc1ccc(S(=O)(=O)c2ccc(N)cc2N)cc1
3 | CCN(CC)c1ccc(S(=O)(=O)c2ccc(N)cc2)cc1
3.06 | Cc1cc(C)c(S(=O)(=O)c2ccc(N)cc2)c(C)c1
2.57 | Nc1ccc(S(=O)(=O)c2ccc(Cl)cc2)cc1
1.63 | N#Cc1ccc(S(=O)(=O)c2ccc(N)cc2)cc1
0.9 | NC(=O)c1ccc(S(=O)(=O)c2ccc(N)cc2)cc1
1.03 | Nc1ccc(S(=O)(=O)c2cccc(N)c2)cc1
1.29 | Nc1ccc(S(=O)(=O)c2ccc(O)cc2O)cc1
1.57 | Nc1ccc(S(=O)(=O)c2ccc(O)cc2)cc1
1.44 | CCN(CC)C(=O)c1ccc(S(=O)(=O)c2ccc(N)cc2)cc1
3.12 | Nc1ccc(S(=O)(=O)c2ccc(Cl)cc2Cl)cc1
1.03 | COc1cc(OC)c(S(=O)(=O)c2ccc(N)cc2)c(OC)c1
2.4 | Cc1ccc(S(=O)(=O)c2ccc(N)cc2)cc1
1.53 | Nc1ccc(S(=O)(=O)c2c(O)cc(O)cc2O)cc1
0.88 | Nc1ccc(S(=O)(=O)c2ccc(NO)cc2)cc1
